Measurements published in patent US20080280835A1, “Novel Use of Peptide Compounds For Treating Muscle Pain” (priority 2005, published 2008).

Key:
Wistar rats [1] = assay: Mechanical hyperalgesia (Randall-Selitto paw pressure) in iodoacetate rat model of osteoarthritic pain; assay type: in vivo; conditions: for paw pressure withdrawal threshold compared to iodoacetate/vehicle treated animals: day 3 after iodoacetate
Sprague Dawley rats [2] = assay: TNF-induced reduction of forelimb grip strength, biceps brachii muscle; assay type: in vivo, rat; conditions: for reversal of the TNF induced reduction of grip strength: 6 hours after TNF 1 μg into biceps brachii, 30 to 60 minutes after drug; for MPE versus vehicle, grip strength: FIG. 4; for dose at which the effect of TNF on grip strength is reversed / grip strength improved: i.p., grip strength test
Procedure: (§1) Intramuscular injection of tumor necrosis factor-alpha (TNF) was used as a model of muscular mechanical hyperalgesia, which occurs in the human fibromyalgia, myofascial pain syndrome, back pain or osteoarthritis.
(§2) Mechanical withdrawal thresholds to muscle pressure were measured with an analgesimeter exerting pressure on the gastrocnemius muscle previously injected with TNF. Forelimb grip strength was measured with a digital grip force meter after TNF injection into the biceps brachii muscles.
(§3) Adult male Sprague Dawley rats with a body weight of 250 g to 300 g were used (supplier: Charles River Sulzfeld Germany). Animals were group-housed (3 animals per cage) and maintained in a room with controlled temperature (21-22° C.) and a reversed light-dark cycle (12 h/12 h) with food and water available ad libitum. All experiments were approved by the Bavarian State animal experimentation committee and carried out in accordance with its regulations.
(§4) Recombinant rat tumor necrosis factor alpha (herein referred to as TNF) was obtained from R&D Systems, Minneapolis, Minn., USA. TNF was diluted in 0.9% NaCl and used in a concentration of 1 μg in 50 μl. Injections were performed in short halothane narcosis with a 30 g needle bilaterally into the gastrocnemius or into the biceps brachii muscle. All rats were used to the behavioral tests before injections and baseline values were recorded over three test days.
Grip strength of the forelimbs was tested with a digital grip force meter (DFIS series, Chatillon, Greensboro, N.C., USA). The rat was positioned to grab the grid with the forelimbs and was gently pulled so that the grip strength could be recorded. Means of three trials were calculated. The effect of the TNF treatment was calculated for each animal separately and only animals with a significant TNF effect were included for further analysis.
Rats were injected with TNF into the M. biceps brachii at 8 am. 6 hours later, grip strength of the forelimbs was tested with a digital grip force meter. Drugs were applied, and grip strength was again tested after 30 to 60 minutes.
(§5) […] Injection volume of i.p. injections was 0.5 ml.
(§6) Data are shown in graphs displaying means and SEMs. Pre- and post-treatment data were compared using ANOVA (Analysis Of Variance) and a Tukey post hoc test. Means of treatment groups were compared using a one-way ANOVA and Dunnett's post hoc Test. Maximal possible effects (MPE) were calculated for all types of treatment.

Sprague Dawley rats [3] = assay: TNF-induced muscle pressure hyperalgesia, gastrocnemius muscle (Randall-Selitto analgesimeter); assay type: in vivo, rat; conditions: for reversal of muscular mechanical hyperalgesia (withdrawal thresholds to pressure): 18 hours after TNF 1 μg into gastrocnemius, 30 to 60 minutes after drug; for Maximal Possible Effect (MPE) versus vehicle, muscle pressure: FIG. 2; for full reversal of the muscle hyperalgesia: doses tested i.p.: pregabalin 30 and 100 mg/kg, gabapentin 100 mg/kg
Procedure: as §1, §2, §3, §4
Mechanical withdrawal thresholds to muscle pressure were measured with an analgesimeter (Ugo Basile, Comerio, Italy). The rat is allowed to crawl into a sock which helps the rat to relax. The hind limbs were positioned such that an increasing pressure could be applied onto the gastrocnemius muscle (maximum 250 g). The pressure needed to elicit withdrawal was recorded. Means of 3 trials for each hind limb were calculated (interstimulus interval of >30 sec). Only animals with a significant TNF effect were included for further analysis.
Rats were injected with TNF into the M. gastrocnemius at […]. 18 hours later, rats were tested for pressure hyperalgesia pre- and post-application of the drugs. Rats were tested for pressure hyperalgesia 30 to 60 minutes after drug administration.
as §5, §6

Wistar rats [4] = assay: Tactile allodynia (von Frey filaments) in iodoacetate rat model of osteoarthritic pain; assay type: in vivo
[5] = 30 mg/kg p.o., day 7 after iodoacetate
[6] = 3 mg/kg s.c., day 7 after iodoacetate

SMILES: O=C(O)Cc1ccccc1Nc1c(Cl)cccc1Cl [diclofenac]
- paw pressure withdrawal threshold compared to iodoacetate/vehicle treated animals (Wistar rats [1]; 30 mg/kg s.c.): increase in paw pressure withdrawal threshold
- mechanical hyperalgesia (Wistar rats [1]; 30 mg/kg s.c., day 7 after iodoacetate): reduced mechanical hyperalgesia

SMILES: NCC1(CC(=O)O)CCCCC1 [gabapentin]
- reversal of the TNF induced reduction of grip strength (Sprague Dawley rats [2]; 100 mg/kg i.p.): significant reversal
- MPE versus vehicle, grip strength (Sprague Dawley rats [2]; 100 mg/kg i.p.): significantly different from vehicle
- dose at which the effect of TNF on grip strength is reversed / grip strength improved (Sprague Dawley rats [2]): 100 mg/kg
- reversal of muscular mechanical hyperalgesia (withdrawal thresholds to pressure) (Sprague Dawley rats [3]; 100 mg/kg i.p.): significant reversal
- Maximal Possible Effect (MPE) versus vehicle, muscle pressure (Sprague Dawley rats [3]; 100 mg/kg i.p.): significantly different from vehicle
- full reversal of the muscle hyperalgesia (Sprague Dawley rats [3]): Neither pregabalin nor gabapentin lead to a full reversal

SMILES: COC[C@@H](NC(C)=O)C(=O)NCc1ccccc1 [lacosamide, (R)-2-acetamido-N-benzyl-3-methoxy-propionamide]
- paw pressure withdrawal threshold compared to iodoacetate/vehicle treated animals (Wistar rats [1]; 3 mg/kg p.o.): increase in paw pressure withdrawal threshold
- mechanical hyperalgesia (Wistar rats [1]; 3 mg/kg p.o., day 7 after iodoacetate): reduced mechanical hyperalgesia
- mechanical hyperalgesia (Wistar rats [1]; 10 mg/kg p.o., day 7 after iodoacetate): reduced mechanical hyperalgesia
- mechanical hyperalgesia (Wistar rats [1]; 10 mg/kg p.o., day 14 after iodoacetate): did not show a statistically significant effect
- mechanical hyperalgesia (Wistar rats [1]; [5]): reduced mechanical hyperalgesia
- reversal of the TNF induced reduction of grip strength (Sprague Dawley rats [2]; 10 mg/kg i.p.): significant reversal
- MPE versus vehicle, grip strength (Sprague Dawley rats [2]; 10 mg/kg i.p.): significantly different from vehicle
- reversal of the TNF induced reduction of grip strength (Sprague Dawley rats [2]; 30 mg/kg i.p.): significant reversal
- MPE versus vehicle, grip strength (Sprague Dawley rats [2]; 30 mg/kg i.p.): significantly different from vehicle
- dose at which the effect of TNF on grip strength is reversed / grip strength improved (Sprague Dawley rats [2]): 10 mg/kg
- improvement of tactile allodynia (Wistar rats [4]; 30 mg/kg p.o., day 3 after iodoacetate, 60 minutes after drug): improved
- improvement of tactile allodynia (Wistar rats [4]; [5]): improved
- improvement of tactile allodynia (Wistar rats [4]; lower doses (3 and 10 mg/kg p.o.)): showed a trend for such improvement
- Maximal Possible Effect (MPE) versus vehicle, muscle pressure (Sprague Dawley rats [3]; 10 mg/kg i.p.): significantly different from vehicle
- reversal of muscular mechanical hyperalgesia (withdrawal thresholds to pressure) (Sprague Dawley rats [3]; 30 mg/kg i.p.): complete reversal
- Maximal Possible Effect (MPE) versus vehicle, muscle pressure (Sprague Dawley rats [3]; 30 mg/kg i.p.): significantly different from vehicle
- muscle hyperalgesia induced by TNF injection in the paw pressure test, dose dependence (Sprague Dawley rats [3]; 3, 10, 30 mg/kg i.p.): dose dependently improves

SMILES: Cc1c(N(C)CS(=O)(=O)O)c(=O)n(-c2ccccc2)n1C [metamizol]
- reversal of the TNF induced reduction of grip strength (Sprague Dawley rats [2]; 2 mg/kg i.p.): significant reversal
- MPE versus vehicle, grip strength (Sprague Dawley rats [2]; 2 mg/kg i.p.): significantly different from vehicle
- reversal of muscular mechanical hyperalgesia (withdrawal thresholds to pressure) (Sprague Dawley rats [3]; 2 mg/kg i.p.): complete reversal
- Maximal Possible Effect (MPE) versus vehicle, muscle pressure (Sprague Dawley rats [3]; 2 mg/kg i.p.): significantly different from vehicle

SMILES: CN1CC[C@]23c4c5ccc(O)c4O[C@H]2[C@@H](O)C=C[C@H]3[C@H]1C5 [morphine]
- paw pressure withdrawal threshold compared to iodoacetate/vehicle treated animals (Wistar rats [1]; 3 mg/kg s.c.): increase in paw pressure withdrawal threshold
- mechanical hyperalgesia (Wistar rats [1]; [6]): reduced mechanical hyperalgesia
- improvement of tactile allodynia (Wistar rats [4]; 3 mg/kg s.c., day 3 after iodoacetate): improved
- improvement of tactile allodynia (Wistar rats [4]; [6]): improved

SMILES: CC(C)C[C@H](CN)CC(=O)O [pregabalin]
- reversal of the TNF induced reduction of grip strength (Sprague Dawley rats [2]; 100 mg/kg i.p.): significant reversal
- MPE versus vehicle, grip strength (Sprague Dawley rats [2]; 100 mg/kg i.p.): significantly different from vehicle
- dose at which the effect of TNF on grip strength is reversed / grip strength improved (Sprague Dawley rats [2]): 100 mg/kg
- reversal of muscular mechanical hyperalgesia (withdrawal thresholds to pressure) (Sprague Dawley rats [3]; 30 mg/kg i.p.): significant reversal
- Maximal Possible Effect (MPE) versus vehicle, muscle pressure (Sprague Dawley rats [3]; 30 mg/kg i.p.): significantly different from vehicle
- reversal of muscular mechanical hyperalgesia (withdrawal thresholds to pressure) (Sprague Dawley rats [3]; 100 mg/kg i.p.): significant reversal
- Maximal Possible Effect (MPE) versus vehicle, muscle pressure (Sprague Dawley rats [3]; 100 mg/kg i.p.): significantly different from vehicle
- full reversal of the muscle hyperalgesia (Sprague Dawley rats [3]): Neither pregabalin nor gabapentin lead to a full reversal
